Assay results reported in patent publication US11464763B2, “Parasiticidal compositions comprising an isoxazoline active agent, methods and uses thereof” (BOEHRINGER INGELHEIM ANIMAL HEALTH USA INC., priority 2011, dated 2022).
Values after ≈ are worked out from the molar mass of the structure shown.

Assays:
[1] = tested on: Rhipicephalus (Boophilus) microplus; test: Pour-on tick count efficacy against Rhipicephalus (Boophilus) microplus in cattle (Example 15); format: in vivo
Method: The efficacy of two pour-on formulations of the invention comprising Compound A at doses of 2.5 mg/kg and 10 mg/kg were tested against infestations of Rhipicephalus (Boophilus) microplus ticks compared with an untreated control. Five healthy head of cattle of 6 to 15 months of age weighing between 100 to 200 kg were used in each study group. Cattle in Group 1 were untreated (control). Cattle in Group 2 were treated on Day 0 with a pour-on formulation comprising Compound A at a concentration of 2.5% (w/v) in DES at a dose of 2.5 mg/kg; and cattle in Group 3 were treated on Day 0 with a pour-on formulation comprising Compound A at a concentration of 10% (w/v) in DES at a dose of 10 mg/kg. Several weeks before treatment, cattle are infested three times a week with approximately 2500 Rhipicephalus (Boophilus) microplus larvae to establish ongoing infestations. Cattle in Groups 2 and 3 were treated with the respective compositions on Day 0 by measuring the required amount of the solution into a marked disposable syringe and applying the material evenly along the mid-line of the back of each animal from the withers to the tail head.
Each animal was challenged by infestation with approximately 5000 R. microplus larvae on Days 7 and 21 and every 14 days thereafter. Ticks dropping from each animal in the previous 24 hours were collected daily and counted from Day 1 until the end of the study. Since the life cycle of the ticks from the point of infestation with larvae until engorged ticks fall off is approximately 21 days (average), the assessment of efficacy for the challenges on Days 7 and 21 and every 14 days thereafter, was done for a range of 7 or 8 days starting approximately 21 days after the challenge. The assessment of efficacy at the beginning of the study was done from day 1 until Day 21.
In addition, the ticks collected were weighed as a group to measure the impact of the treatment on the weight gain of the ticks compared to the control to assess the vitality and reproductive capability of the treated ticks. […] Tables 16A and 16B show the % efficacy of the two pour-on formulations based on the weight of the ticks collected. […] As evidenced from the tables and the figures, the pour-on formulations of the invention at both 2.5 mg/kg and 10 mg/kg provide excellent efficacy against Rhipicephalus (Boophilus) microplus ticks for an extended period of time. […] Furthermore, as shown in Tables 16A and 16B, the two pour-on compositions were extremely effective against ticks based on the weight of the ticks collected. […] The extremely long lasting efficacy above 90% for pour-on composition against Rhipicephalus (Boophilus) microplus ticks is remarkable compared with pour-on formulations known in the art.

D. variabilis = test: Efficacious plasma concentration (EC90) against D. variabilis ticks in dogs (Example 13); format: in vivo, Dermacentor variabilis; conditions: for EC90 (concentration required to achieve 90% efficacy): plasma concentration
Method: Blood samples were collected from all dogs in the study on Days −6, 0 (at 4 h and 12 h), 1, 2, 9, 16, 23, 30, 36, 44, 51, 58, 64, 72, 79 and 86. Plasma samples were analyzed for the concentration of Compound A using an LC/MS/MS analytical method that was GLP validated for the purpose.
Plasma concentrations of Compound A from dogs in the studies of Examples 1 and 4 were determined according to the description in Example 1, and the plasma concentration versus % efficacy against A. americanum and D. variabilis were fit to a Sigmoidal Emax model. […] Since Compound A is systemically active, the lower concentration of the compound in the plasma required to achieve 90% efficacy from the topical compositions of the invention is surprising and unexpected.

Rhipicephalus sanguineus = test: Spot-on efficacy against Rhipicephalus sanguineus ticks on dogs, 40% DES/DMI (Example 5); format: in vivo; conditions: 4.0 mg/kg
Method: The efficacy of a formulation comprising an isoxazoline compound (Cmpd. A) in a carrier comprising 40% DES/DMI against Ctenocephalides felis fleas and Rhipicephalus sanguineus ticks in Dogs was studied. […] Three treatment groups containing three dogs each were evaluated. All dogs were treated once topically on Day 0 by parting the hair and applying the solution from a syringe directly onto the skin in a single spot on the midline of the neck between the base of the skull and the shoulder blades.
Treatment Group 1 was a placebo control and received 0.067 mL/kg of body weight. Treatment Group 2 was administered a topical spot-on formulation comprising 6.0% (w/v) Cmpd. A in 40% DES/DMI to deliver a dose of 4.0 mg/kg body weight. Treatment Group 3 was administered a topical spot-on formulation comprising 12% (w/v) Cmpd. A in 40% DES/DMI to deliver a dose of 4.0 mg/kg body weight.

`O=C(CNC(=O)c1ccc(C2=NOC(c3cc(Cl)cc(C(F)(F)F)c3)(C(F)(F)F)C2)c2ccccc12)NCC(F)(F)F` (stereo not shown) [Compound A, 4-[5-[3-chloro-5-(trifluoromethyl)phenyl]-4,5-dihydro-5-(trifluoromethyl)-3-isoxazolyl]-N-[2-oxo-2-[(2,2,2-trifluoroethyl)amino]ethyl]-1-naphthalanecarboxamide] was tested, and the “Average % Efficacy (Tick Count)” value ([1]; Group 2: pour-on 2.5% (w/v) in DES, 2.5 mg/kg, Day 1-21) was 58.8%, the “Average % Efficacy (Tick Count)” value ([1]; Group 2: pour-on 2.5% (w/v) in DES, 2.5 mg/kg, Day 28-34, Challenge Day 7) was 75.6% and the “Average % Efficacy (Tick Count)” value ([1]; Group 2: pour-on 2.5% (w/v) in DES, 2.5 mg/kg, Day 41-48, Challenge Day 21) was 77.0%. The “Average % Efficacy (Tick Count)” value ([1]; Group 2: pour-on 2.5% (w/v) in DES, 2.5 mg/kg, Day 55-62, Challenge Day 35) was 91.2%, the “Average % Efficacy (Tick Count)” value ([1]; Group 2: pour-on 2.5% (w/v) in DES, 2.5 mg/kg, Day 69-76, Challenge Day 49) was 88.3% and the “Average % Efficacy (Tick Count)” value ([1]; Group 2: pour-on 2.5% (w/v) in DES, 2.5 mg/kg, Day 83-90, Challenge Day 63) was 90.7%. For the same compound, the “Average % Efficacy (Tick Count)” value ([1]; Group 2: pour-on 2.5% (w/v) in DES, 2.5 mg/kg, Day 97-104, Challenge Day 77) was 79.8%, the “Average % Efficacy (Tick Count)” value ([1]; Group 2: pour-on 2.5% (w/v) in DES, 2.5 mg/kg, Day 111-118, Challenge Day 91) was 79.0% and the “Average % Efficacy (Tick Count)” value ([1]; Group 2: pour-on 2.5% (w/v) in DES, 2.5 mg/kg, Day 132-139, Challenge Day 112) was 86.2%. For the same compound, the “Average % Efficacy (Tick Count)” value ([1]; Group 2: pour-on 2.5% (w/v) in DES, 2.5 mg/kg, Day 146-153, Challenge Day 126) was 30.3%, the “Average % Efficacy (Tick Count)” value ([1]; Group 2: pour-on 2.5% (w/v) in DES, 2.5 mg/kg, Day 160-167, Challenge Day 140) was 74.0% and the “Average % Efficacy (Tick Count)” value ([1]; Group 3: pour-on 10% (w/v) in DES, 10 mg/kg, Day 1-21) was 78.1%. For the same compound, the “Average % Efficacy (Tick Count)” value ([1]; Group 3: pour-on 10% (w/v) in DES, 10 mg/kg, Day 28-34, Challenge Day 7) was 92.0%, the “Average % Efficacy (Tick Count)” value ([1]; Group 3: pour-on 10% (w/v) in DES, 10 mg/kg, Day 41-48, Challenge Day 21) was 98.0% and the “Average % Efficacy (Tick Count)” value ([1]; Group 3: pour-on 10% (w/v) in DES, 10 mg/kg, Day 55-62, Challenge Day 35) was 97.8%. For the same compound, the “Average % Efficacy (Tick Count)” value ([1]; Group 3: pour-on 10% (w/v) in DES, 10 mg/kg, Day 69-76, Challenge Day 49) was 99.3%, the “Average % Efficacy (Tick Count)” value ([1]; Group 3: pour-on 10% (w/v) in DES, 10 mg/kg, Day 83-90, Challenge Day 63) was 98.9% and the “Average % Efficacy (Tick Count)” value ([1]; Group 3: pour-on 10% (w/v) in DES, 10 mg/kg, Day 97-104, Challenge Day 77) was 92.4%. For the same compound, the “Average % Efficacy (Tick Count)” value ([1]; Group 3: pour-on 10% (w/v) in DES, 10 mg/kg, Day 111-118, Challenge Day 91) was 96.6%, the “Average % Efficacy (Tick Count)” value ([1]; Group 3: pour-on 10% (w/v) in DES, 10 mg/kg, Day 132-139, Challenge Day 112) was 92.4% and the “Average % Efficacy (Tick Count)” value ([1]; Group 3: pour-on 10% (w/v) in DES, 10 mg/kg, Day 146-153, Challenge Day 126) was 72.4%. For the same compound, the “Average % Efficacy (Tick Count)” value ([1]; Group 3: pour-on 10% (w/v) in DES, 10 mg/kg, Day 160-167, Challenge Day 140) was 85.8%, the tick count efficacy ([1]; pour-on 2.5 mg/kg and 10 mg/kg, for at least day 139) was “above 90%” and the “concentration required to achieve 90% efficacy, lower than the concentration required from oral administration” value (D. variabilis; dogs, topical vs oral) was about 36%. For the same compound, the “EC90 (concentration required to achieve 90% efficacy)” value (D. variabilis; dogs, topical compositions, Sigmoidal Emax model) was 0.07 µg/mL (≈ 0.112 µM), the “EC90 (concentration required to achieve 90% efficacy)” value (D. variabilis; oral dosage form) was 0.11 µg/mL (≈ 0.176 µM) and the “% Reduction” value (Rhipicephalus sanguineus; Group 2: 6.0% in 40% DES/DMI, Day 2) was 100.0%. The “% Reduction” value (Rhipicephalus sanguineus; Group 2: 6.0% in 40% DES/DMI, Day 30) was 91.5%, the “% Reduction” value (Rhipicephalus sanguineus; Group 2: 6.0% in 40% DES/DMI, Day 31) was 100.0% and the “% Reduction” value (Rhipicephalus sanguineus; Group 2: 6.0% in 40% DES/DMI, Day 38) was 85.2%. The “% Reduction” value (Rhipicephalus sanguineus; Group 3: 12% in 40% DES/DMI, Day 2) was 100.0%, the “% Reduction” value (Rhipicephalus sanguineus; Group 3: 12% in 40% DES/DMI, Day 30) was 72.6% and the “% Reduction” value (Rhipicephalus sanguineus; Group 3: 12% in 40% DES/DMI, Day 31) was 100.0%. For the same compound, the “% Reduction” value (Rhipicephalus sanguineus; Group 3: 12% in 40% DES/DMI, Day 38) was 51.3%.
